Assay results published in the CheMixHub viscosity set.

Assay: xn = mol fraction of the nth substance listed

CCOCCO + C1CCCCC1
viscosity [mPa·s]
Settings	298.15 K	303.15 K	308.15 K	313.15 K
101 kPa, x1 = 0.0542	0.903	–	0.755	–
101 kPa, x1 = 0.1507	0.92	–	0.775	–
101 kPa, x1 = 0.2541	0.952	–	0.805	–
101 kPa, x1 = 0.3508	0.996	–	0.841	–
101 kPa, x1 = 0.452	1.057	–	0.888	–
101 kPa, x1 = 0.5	1.093	–	0.915	–
101 kPa, x1 = 0.5497	1.135	–	0.945	–
101 kPa, x1 = 0.6534	1.24	–	1.019	–
101 kPa, x1 = 0.7527	1.368	–	1.105	–
101 kPa, x1 = 0.8492	1.524	–	1.206	–
101 kPa, x1 = 0.9552	1.741	–	1.341	–
101.33 kPa, x1 = 0.0993	0.864	0.787	0.724	0.663
101.33 kPa, x1 = 0.2013	0.91	0.827	0.755	0.696
101.33 kPa, x1 = 0.2968	0.961	0.875	0.798	0.731
101.33 kPa, x1 = 0.4007	1.035	0.938	0.852	0.786
101.33 kPa, x1 = 0.495	1.112	1.004	0.884	0.837
101.33 kPa, x1 = 0.5998	1.211	1.093	0.992	0.899
101.33 kPa, x1 = 0.6974	1.341	1.2	1.085	0.977
101.33 kPa, x1 = 0.808	1.496	1.341	1.206	1.094
101.33 kPa, x1 = 0.9006	1.714	1.527	1.371	1.231

CC(C)CCO + OCCCCO
viscosity [mPa·s], 100 kPa
Settings	x1 = 0.0812	x1 = 0.1634	x1 = 0.2525	x1 = 0.3428	x1 = 0.4555	x1 = 0.5459	x1 = 0.6484	x1 = 0.7582	x1 = 0.8761
298.15 K	67.45	62.1	56.19	50.09	42.34	36.04	28.79	20.97	12.53
303.15 K	53.11	49.29	45.07	40.5	34.55	29.64	23.86	17.53	10.61
308.15 K	42.18	39.46	36.34	32.86	28.33	24.49	19.94	14.75	9.039

CCOCCO + Cc1cccc(C)c1
viscosity [mPa·s], 101 kPa
Settings	298.15 K	308.15 K
x1 = 0.0531	0.608	0.521
x1 = 0.1513	0.663	0.566
x1 = 0.2482	0.727	0.618
x1 = 0.3528	0.809	0.682
x1 = 0.4512	0.9	0.752
x1 = 0.5053	0.957	0.795
x1 = 0.5473	1.006	0.831
x1 = 0.6494	1.14	0.928
x1 = 0.751	1.3	1.04
x1 = 0.8492	1.487	1.168
x1 = 0.9554	1.731	1.33

CCOCCO + CCCCCCCCO
298.15 K, 101 kPa
Settings	viscosity [mPa·s]
x1 = 0.1384	6.062
x1 = 0.2654	5.061
x1 = 0.3825	4.268
x1 = 0.4907	3.649
x1 = 0.591	3.172
x1 = 0.6843	2.805
x1 = 0.7713	2.504
x1 = 0.8525	2.266
x1 = 0.9286	2.078

CC(C)CCO + OCc1ccccc1
viscosity [mPa·s], 101 kPa
Settings	x1 = 0.0955	x1 = 0.1908	x1 = 0.2853	x1 = 0.3812	x1 = 0.4814	x1 = 0.5847	x1 = 0.6842	x1 = 0.7879	x1 = 0.8921
293.15 K	6.28	6.27	6.26	6.18	6.07	5.86	5.58	5.23	4.86
298.15 K	5.53	5.51	5.49	5.42	5.31	5.11	4.85	4.53	4.19
303.15 K	4.64	4.63	4.62	4.58	4.49	4.37	4.19	3.94	3.64
308.15 K	3.96	3.92	3.89	3.86	3.81	3.7	3.53	3.28	3
313.15 K	3.48	3.44	3.39	3.36	3.31	3.22	3.1	2.95	2.71
318.15 K	3.05	3	2.95	2.89	2.83	2.74	2.63	2.49	2.3

CNC(C)=O + CS(C)=O
313 K, 101 kPa
Settings	viscosity [mPa·s]
x2 = 0.0743	2.725
x2 = 0.177	2.42
x2 = 0.2759	2.198
x2 = 0.3801	2.01
x2 = 0.4764	1.888
x2 = 0.5737	1.78
x2 = 0.6725	1.696
x2 = 0.7647	1.626
x2 = 0.8734	1.567
x2 = 0.9723	1.522

CCCC[P+](CCCC)(CCCC)CCCC.[Br-] + O
Settings	viscosity [mPa·s]
308.15 K, 101 kPa, x1 = 0.08254	6.085

CNCCO + CCOCCO
viscosity [mPa·s], 101.3 kPa
Settings	293.15 K	298.15 K	303.15 K	308.15 K	313.15 K	318.15 K	323.15 K
x1 = 0.118	2.547	2.249	1.998	1.785	1.604	1.448	1.313
x1 = 0.34	3.887	3.356	2.92	2.56	2.26	2.006	1.791
x1 = 0.444	4.708	4.021	3.464	3.01	2.634	2.32	2.057
x1 = 0.545	5.72	4.828	4.116	3.541	3.071	2.684	2.362
x1 = 0.737	8.19	6.751	5.636	4.76	4.058	3.492	3.03
x1 = 0.915	11.49	9.252	7.565	6.267	5.255	4.453	3.812

CC(C)CCO + COc1ccccc1
viscosity [mPa·s], 101.33 kPa
Settings	x2 = 0.1002	x2 = 0.2	x2 = 0.3005	x2 = 0.3997	x2 = 0.5004	x2 = 0.6014	x2 = 0.7004	x2 = 0.8003	x2 = 0.9008
303.15 K	2.52	2.023	1.657	1.401	1.216	1.087	0.999	0.944	0.916
313.15 K	1.905	1.545	1.283	1.101	0.974	0.893	0.843	0.816	0.801
323.15 K	1.484	1.224	1.036	0.908	0.823	0.769	0.735	0.715	0.701
